# pKd: −log10 of the molar value.
# Legend:
# [1] = target: T1, 6-phosphogluconolactonase (Trypanosoma brucei, UniProt Q9GRG6); assay: Binding affinity to Trypanosoma brucei 6-phospho-gluconalactonase by NMR analysis
# T1 sequence (Q9GRG6 whole entry): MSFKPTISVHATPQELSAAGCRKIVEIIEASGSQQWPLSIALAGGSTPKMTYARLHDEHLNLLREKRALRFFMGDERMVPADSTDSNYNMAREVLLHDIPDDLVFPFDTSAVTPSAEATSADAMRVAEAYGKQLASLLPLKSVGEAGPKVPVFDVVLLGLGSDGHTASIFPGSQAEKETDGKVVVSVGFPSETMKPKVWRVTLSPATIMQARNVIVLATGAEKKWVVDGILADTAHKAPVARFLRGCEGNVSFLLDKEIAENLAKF
# [2] = Binding affinity to mouse major urinary protein by NMR analysis
# [3] = Binding affinity to hen egg-white lysozyme by NMR analysis; parameters: species or system Gallus gallus
# [4] = target: Galectin-3 (Homo sapiens, UniProt P17931); assay: Binding affinity to galectin-3 (unknown origin)
# [5] = Binding affinity to oxalocrotonate tautomerase (unknown origin) by NMR analysis
# [6] = Binding affinity to ketosteroid isomerase (unknown origin) by NMR analysis
# [7] = Binding affinity to Escherichia coli glucose/galactose binding protein by NMR analysis
# [8] = Binding affinity to quail siderocalin Q83 by NMR analysis; parameters: species or system Galliformes
# [9] = Binding affinity to Escherichia coli ribose binding protein by NMR analysis
# [10] = target: T2, Thiopurine S-methyltransferase (Homo sapiens, UniProt P51580); assay: Binding affinity to thiopurine methyltransferase (unknown origin) by NMR analysis
# T2 sequence (P51580 whole entry): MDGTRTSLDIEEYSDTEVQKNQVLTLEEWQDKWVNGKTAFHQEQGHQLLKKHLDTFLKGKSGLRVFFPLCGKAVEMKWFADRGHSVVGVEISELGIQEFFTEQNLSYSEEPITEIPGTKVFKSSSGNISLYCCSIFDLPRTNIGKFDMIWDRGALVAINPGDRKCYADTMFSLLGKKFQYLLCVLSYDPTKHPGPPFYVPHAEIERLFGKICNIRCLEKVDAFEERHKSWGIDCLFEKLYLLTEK
# Chain of Galectin-3 (P17931 whole entry): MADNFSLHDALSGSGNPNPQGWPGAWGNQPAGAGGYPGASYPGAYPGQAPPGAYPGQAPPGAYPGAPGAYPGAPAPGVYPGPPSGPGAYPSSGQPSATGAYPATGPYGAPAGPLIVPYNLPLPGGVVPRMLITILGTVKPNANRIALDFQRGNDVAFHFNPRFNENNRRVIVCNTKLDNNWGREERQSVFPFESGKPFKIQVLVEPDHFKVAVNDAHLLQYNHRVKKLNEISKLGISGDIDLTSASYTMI
smiles,measurement,setting,value
O=C(O)[C@H](O)[C@@H](O)[C@H](O)[C@H](O)COP(=O)(O)O,pKd,[1],5.00
c1ccc(Nc2cccc3ccccc23)cc1,pKd,[2],7.49
N[C@H]1[C@H](O[C@H]2[C@H](O)[C@@H](N)[C@H](O[C@H]3[C@H](O)[C@@H](N)C(O)O[C@@H]3CO)O[C@@H]2CO)O[C@H](CO)[C@@H](O)[C@@H]1O (stereo partly drawn),pKd,[3],4.85
CC(=O)N[C@H]1C(O)O[C@H](CO)[C@@H](O[C@@H]2O[C@H](CO)[C@H](O)[C@H](NC(=O)c3ccccc3)[C@H]2O)[C@@H]1O (stereo partly drawn),pKd,[4],4.74
COc1c(F)c(F)c(C(=O)N[C@H]2[C@@H](O)[C@@H](CO)O[C@@H](O[C@H]3[C@H](O)[C@@H](NC(C)=O)C(O)O[C@@H]3CO)[C@@H]2O)c(F)c1F (stereo partly drawn),pKd,[4],5.48
CCC(C)C1=NCCS1 (stereo not drawn),pKd,[2],6.05
CC1(C)SCN(C(=O)[C@@H](CS)Cc2ccccc2)[C@H]1C(=O)O,pKd,[5],3.23
C[C@]12CC[C@H]3[C@@H](CCC4=CC(=O)CC[C@@H]43)[C@@H]1CC[C@@H]2O,pKd,[6],5.26
COc1nccnc1CC(C)C,pKd,[2],6.52
OC[C@H]1OC(O)[C@H](O)[C@@H](O)[C@@H]1O (stereo partly drawn) [DEXTROSE],pKd,[7],6.54
O=C(N[C@H]1COC(=O)[C@@H](NC(=O)c2cccc(O)c2O)COC(=O)[C@@H](NC(=O)c2cccc(O)c2O)COC1=O)c1cccc(O)c1O [ENTEROBACTIN],pKd,[8],9.30
O[C@@H]1[C@H](O)[C@H](O)CO[C@H]1O [RIBOSE (PYRANOSE)],pKd,[9],6.77
Nc1ncnc2c1ncn2[C@@H]1O[C@H](C[C@@H](N)CC[C@H](N)C(=O)O)[C@@H](O)[C@H]1O [SINEFUNGIN],pKd,[10],5.00

# — ChEMBL document CHEMBL3351755, “Elements and modulation of functional dynamics” (J Med Chem, 2014)
